# Test results as given in patent US10213445B2, “Compositions and methods of diazeniumdiolate-based prodrugs for treating cancer” (ARIZONA BOARD OF REGENTS ON BEHALF OF THE UNIVERSITY OF …, priority 2014, dated 2019).
# Assays:
# MDA-MB-231 xenograft = conditions: SCID mice, 17 and 50 mg kg^−1, compared to control; cited from earlier work
# PARP = target: T1, PARP (Homo sapiens, UniProt P09874); conditions: caspase-3 null MCF-7 cells; cited from earlier work
# T1 construct: on PARP activity has been determined in caspase-3 null MCF-7 cells; host or cells: MCF-7
# [1] = test system: angiogenesis in mouse tumor specimens; conditions: high concentration; cited from earlier work
# [2] = test system: vascular endothelial growth factor (VEGF); conditions: high concentration; cited from earlier work
# [3] = target: hypoxia-inducible factor (HIF) 1α (Homo sapiens, UniProt Q16665); conditions: high concentration, human breast cancer cells; cited from earlier work
# [4] = Decomposition kinetics by UV spectrophotometry in PBS; type: physicochemical; conditions: for pH dependence of hydrolysis rate: 37° C.
# Description: FIGS. 3A and 3B are graphs illustrating the pH-dependence of the rate constant of decomposition of (FIG. 3A) 1 (100 or 200 μM) and (FIG. 3B) 2 (100 μM) at 37° C. in PBS containing 50 μM DTPA measured at 250 nm (mean±SEM, n≥3).
# (§1) The rate constants of decomposition were measured spectrophotometrically by monitoring the decrease in absorbance of peaks at ^˜240-250 nm characteristic of the diazeniumdiolate functionality. The hydrolysis medium consisted of the metal chelator diethylenetriaminepentaacetic acid (DTPA, 50 μM) in calcium- and magnesium-free Dulbecco's phosphate-buffered saline (PBS, pH 7.4). UV-visible spectroscopy was performed with a Hewlett-Packard 8453 diode-array spectrophotometer equipped with Agilent 89090A thermostat set to 37° C. The spectrophotometer was blanked after warming the cuvette containing buffer at the appropriate pH in the instrument heat block for 5 min. For esterase-containing reactions, porcine liver esterase (20 μL; Sigma; suspension in 3.2 M (NH4)2SO4, pH 8) was added to the reaction buffer before blanking. Upon addition of IPA/NO (1) or AcOM-IPA/NO (2) (≤10 μL of stock), the cuvette was capped and inverted to mix. Spectra were collected at 0.5- to 60-s intervals for time periods of 2-120 min or until A∞<0.05. Kinetic analysis was performed by fitting the data to an exponential decay (A=ΔAe^−kt+A∞) using KaleidaGraph v.3.1.
# porcine liver esterase = experiment: Esterase-catalyzed hydrolysis; type: in vitro ADME
# Description: FIGS. 4A-C are graphs illustrating spontaneous hydrolysis (FIGS. 4A and 4B) and esterase-catalyzed hydrolysis (FIG. 4C) of 2 in an embodiment of the invention. In FIG. 4A, spectra were collected every 60 s (10-min intervals shown) after dissolving 2 in PBS (pH 7.4) at 37° C., and only loss of the parent compound was observed. In FIG. 4B, the pH was elevated to 12, and scans were collected every 0.5 s (through 2.5 s and 3.5, 5.5, 9.5, and 54.5 shown). In FIG. 4C, porcine liver esterase (20 μL in 3 mL) was added (pH 7.4), and spectra were collected every 10 s. Hydrolysis of 2 (λmax 236 nm) to 1 (λmax 250 nm) was complete within 40 s (0.067 s^−1) under these conditions. […] Elevation of the intensity near 200 nm indicated formation of autoxidation products such as nitrite. Deaeration inhibited this peak (data not shown).
# as §1
# [5] = Alkaline hydrolysis at pH 11 followed by NMR; type: physicochemical
# Description: Organic products of the hydrolysis of 1 and 2 were quantified by integrating their NMR spectra. For pH 7.4, 3.9 mM solutions in 0.1 M phosphate buffer were employed. For pH 11, 4.9 mM solutions of 1 and 2 in 50 mM sodium carbonate were studied. Samples were run on a Varian Inova 400 MHz NMR with a Dell Precision 390 workstation. The samples were run at 37° C. and water suppression was achieved by using the preset pulse sequence. Peaks were identified by comparison with authentic standards.
# Differences in time course as well as stoichiometry in the alkaline hydrolysis of 1 and 2 also matched the expectation based on the HNO/NO yield and rate data. […] Compound 2, on the other hand, completely dissociated within 5 min at 37° C. in a pH 11 carbonate buffer. […] However, the amine was undetectable.
# MDA-MB-231 cells = experiment: Oxidation of DCF (oxidant level) in cells; type: cell-based, human; conditions: 100 μM, 37° C., MDA-MB-231 as representative example
# Description: DCF loaded cells were treated with IPA/NO-aspirin (blue), DEA/NO-aspirin (green), IPA/NO (magenta), DEA/NO (brown), aspirin (red) or DMSO (0.1%; black) at 37° C., and the fluorescence at 535 nm was measured in a time-dependent manner. Data are plotted as mean±SD (n=4).
# MDA-MB-231 xenografts = experiment: MDA-MB-231-GFP xenograft growth and brain metastasis in nude mice; type: in vivo; conditions: daily injection of equimolar doses for five weeks, vs control
# Description: The cells were allowed to grow for 14 d, and the animals (40) were randomly divided into four groups (control, aspirin, IPA/NO-aspirin or DEA/NO-aspirin). Treated groups were injected daily with equimolar doses of DEA/NO-aspirin or IPA/NO-aspirin (16 mg kg^−1) or aspirin (9 mg kg^−1)) or with DMSO for the next five weeks.
# For examples utilizing mouse tumor model methods, the following procedure was instituted. Analysis of tumor growth was carried out using protocols approved by the Committee on the Ethics of Animal Experiments of the National Cancer Institute (RBB-144) and adhered with the recommendations in the United States National Research Council's “Guide for the Care and Use of Laboratory Animals,” the United States Public Health Service's “Guide for the Care and Use of Laboratory Animals” and the “Policy on Humane Care and Use of Laboratory Animals”. The vivarium was maintained at 23° C. on a 12 h light/12 h dark cycle with ad libitum access to food and water. Nude mice (n=40) under general anesthesia were implanted with 7.5×10^5 MDA-MB-231 cells transfected with GFP by injection underneath the fourth left mammary gland. Prior to implantation, pedal withdrawal and eyelid reflexes were examined to ensure that mice were under stage III of anesthesia. At 14 days post-inoculation, the mice were randomly divided into four groups and treated by daily injection of equimolar doses (10 μL of 100 mM stock) of aspirin (9.00 mg kg^−1), IPA/NO-aspirin (15.8 mg kg^−1) or DEA/NO-aspirin (16.3 mg kg^−1) or with vehicle (DMSO). After five weeks, the tumor size was measured using in vivo fluorescent imaging for quantification of the GFP tag. In brief, mice were under general anesthesia throughout the whole body imaging process, and GFP signals were captured and quantified in an Xenogen IVIS 100 Imaging System according to the manufacturer's protocol. To assess metastasis in the brain, the animals were subsequently sacrificed following the approved method and guidelines.
# BCL-2 = BCL-2 expression; type: cell-based; conditions: FIG. 18
# ER-α = ER-α levels (mRNA of ER1) in ER-α(−) cells; type: cell-based; conditions: FIG. 20
# [6] = test system: various cancer cells lines; conditions: read-out: IC50 (cytotoxicity); cited from earlier work
# MB-231 cells = experiment: cells; conditions: Homo sapiens, 48 h
# Description: In this example, a 3-(4,5-dimethylthiazol-2-yl)-2,5-diphenyltetrazolium bromide (MTT)viability assay was used to evaluate combination therapy to on the cytotoxicity of cancer cells using compound embodiments.
# Cells were plated at 8,000-10,000 cells per well in a 96-well plate and grown overnight. […] Thereafter, 10 μL of 5 mg/mL MTT was added to each well, and the plate was incubated for 1 hour at 37° C. After removal of the media, 100 μL of DMSO was added to each well, and the absorbance was recorded at 550 nm. Growth inhibition is reported as the percentage of the corresponding control.
# [7] = porcine liver esterase 20 μL in 3 mL, pH 7.4
# T1 sequence (P09874 whole entry): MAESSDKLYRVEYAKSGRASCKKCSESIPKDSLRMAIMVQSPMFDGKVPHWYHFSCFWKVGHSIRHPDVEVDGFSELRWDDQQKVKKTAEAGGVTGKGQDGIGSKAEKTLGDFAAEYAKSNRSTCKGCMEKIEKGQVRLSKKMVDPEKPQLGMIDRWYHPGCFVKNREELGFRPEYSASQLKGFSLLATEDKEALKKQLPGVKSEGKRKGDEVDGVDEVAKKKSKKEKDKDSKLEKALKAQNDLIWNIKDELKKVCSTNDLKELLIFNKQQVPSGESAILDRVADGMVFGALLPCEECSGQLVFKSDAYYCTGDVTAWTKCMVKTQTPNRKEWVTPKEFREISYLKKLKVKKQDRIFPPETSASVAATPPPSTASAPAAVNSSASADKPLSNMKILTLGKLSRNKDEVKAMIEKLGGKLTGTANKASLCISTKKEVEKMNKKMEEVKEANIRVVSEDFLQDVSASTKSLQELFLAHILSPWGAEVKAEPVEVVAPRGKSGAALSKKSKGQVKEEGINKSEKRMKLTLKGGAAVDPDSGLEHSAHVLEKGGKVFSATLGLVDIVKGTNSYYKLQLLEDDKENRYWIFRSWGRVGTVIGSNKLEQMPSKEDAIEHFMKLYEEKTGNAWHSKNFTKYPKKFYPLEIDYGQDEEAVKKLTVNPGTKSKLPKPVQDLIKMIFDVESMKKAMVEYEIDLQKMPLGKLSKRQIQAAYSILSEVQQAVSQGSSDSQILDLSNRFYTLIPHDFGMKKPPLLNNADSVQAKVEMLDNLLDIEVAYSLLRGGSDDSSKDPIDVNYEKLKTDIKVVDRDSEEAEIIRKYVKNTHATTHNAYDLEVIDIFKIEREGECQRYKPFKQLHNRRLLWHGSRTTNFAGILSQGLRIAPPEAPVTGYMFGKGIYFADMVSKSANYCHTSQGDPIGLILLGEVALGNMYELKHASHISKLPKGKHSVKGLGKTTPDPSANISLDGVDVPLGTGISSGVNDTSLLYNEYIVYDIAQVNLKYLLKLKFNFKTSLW
# Sequence of hypoxia-inducible factor (HIF) 1α (Q16665 whole entry): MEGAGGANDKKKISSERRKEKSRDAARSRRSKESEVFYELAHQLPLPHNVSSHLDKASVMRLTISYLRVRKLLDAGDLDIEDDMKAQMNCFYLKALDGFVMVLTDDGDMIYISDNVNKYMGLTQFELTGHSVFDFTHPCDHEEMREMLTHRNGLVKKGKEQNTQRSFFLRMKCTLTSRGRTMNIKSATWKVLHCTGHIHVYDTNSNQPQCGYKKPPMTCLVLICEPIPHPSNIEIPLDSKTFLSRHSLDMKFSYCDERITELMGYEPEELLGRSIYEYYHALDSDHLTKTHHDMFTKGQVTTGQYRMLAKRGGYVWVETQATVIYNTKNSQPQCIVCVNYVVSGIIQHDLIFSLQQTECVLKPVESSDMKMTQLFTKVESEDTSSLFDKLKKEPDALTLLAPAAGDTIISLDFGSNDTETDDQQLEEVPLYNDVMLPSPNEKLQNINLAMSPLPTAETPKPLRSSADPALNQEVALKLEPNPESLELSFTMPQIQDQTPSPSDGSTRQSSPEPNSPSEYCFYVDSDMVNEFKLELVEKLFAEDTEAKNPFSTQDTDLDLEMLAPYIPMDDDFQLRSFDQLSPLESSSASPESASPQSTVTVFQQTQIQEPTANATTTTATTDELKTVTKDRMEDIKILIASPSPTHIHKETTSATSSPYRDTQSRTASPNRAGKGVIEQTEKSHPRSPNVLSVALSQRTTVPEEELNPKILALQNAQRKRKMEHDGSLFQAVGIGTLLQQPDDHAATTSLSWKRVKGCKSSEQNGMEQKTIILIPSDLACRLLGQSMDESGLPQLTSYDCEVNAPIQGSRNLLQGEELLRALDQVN
compound,measurement,setting,value
"[Na+].[Na+].[O-][N+]([O-])=NO [Angeli's salt, Na2N2O3]",tumor growth,MDA-MB-231 xenograft,some inhibition of tumor growth
same,inhibitory effect on PARP activity,PARP,"rapid, but required rather high concentrations of donor"
same,angiogenesis,[1],inhibited angiogenesis
same,serum VEGF levels,[2],decreased
same,HIF 1α,[3],inhibited
"CC(C)N[N+]([O-])=N[O-].[Na+] [Compound 1, O^2-Sodium 1-(N-Isopropylamino)diazen-1-ium-1,2-diolate, reference compound]",pH dependence of hydrolysis rate,[4]; PBS with 50 μM DTPA,"slowed as the pH was increased from 3 to 10, with a small increase in rate thereafter"
same,rate of decay of 1,"[4]; PBS with 50 μM DTPA, 37° C. (FIG. 3A)",0.0012 s⁻¹
same,rate of decay of 1,"porcine liver esterase; 1 formed from 2 with esterase, pH 7.4 (FIG. 4C)",0.0033 s⁻¹
same,hydrolysis at pH 11,[5]; pH 11,hydrolyzed slowly
same,hydrolysis rate relative to 2 (more slowly),[5]; pH 11,100 fold
same,oxidation of DCF (fluorescence intensity),MDA-MB-231 cells,"oxidized DCF, but to a much reduced extent"
"CC(=O)OCO/N=[N+](\[O-])NC(C)C [Compound 2, O^2-(acetoxymethyl)1-(isopropylamino)diazen-1-ium-1,2-diolate]",pH dependence of hydrolysis rate,[4]; PBS with 50 μM DTPA,essentially first order in hydroxide ion concentration between pH 5 and 11
same,hydrolysis rate relative to 1,[4]; physiological pH,an order of magnitude slower
same,rate of hydrolysis of 2 to 1,porcine liver esterase; [7],0.067 s⁻¹
same,time to complete hydrolysis of 2 to 1,porcine liver esterase; [7],≤ 40 s
same,time to complete dissociation,"[5]; 37° C., pH 11 carbonate buffer",≤ 5 min
"CCN(CC)[N+]([O-])=N[O-].[Na+] [DEA/NO, O^2-Sodium 1-(N,N-Diethylamino)diazen-1-ium-1,2-diolate]",oxidation of DCF (fluorescence intensity),MDA-MB-231 cells,"oxidized DCF, but to a much reduced extent"
same,inhibitory effect on PARP activity,PARP,"rapid, but required rather high concentrations of donor"
"CC(=O)Oc1ccccc1C(=O)O [aspirin, reference compound]","size of the primary tumor (GFP fluorescence intensity, tumor mass)",MDA-MB-231 xenografts,did not significantly decrease
same,oxidation of DCF (fluorescence intensity),MDA-MB-231 cells,ineffective compared to control
same,BCL-2 expression,BCL-2,induce BCL-2 expression
same,ER-α levels,ER-α,increases ERα levels
same,IC50,[6],> 1000 µM
CC/C(=C(\c1ccccc1)c1ccc(OCCN(C)C)cc1)c1ccccc1 [tamoxifen],viability at 10 µM,MB-231 cells,76%
